Measurements from BindingDB's records for doi:10.7270/Q27W69N8 (Srmlsc, 2009).
Where “and” joins values, the source holds several entries; their conditions need not be identical. Identical values can stand only once. Counter-ions that a name gives are not always drawn.

What follows are molecules tested against T1, M17 leucyl aminopeptidase (Plasmodium falciparum (isolate 3D7), UniProt Q8IL11) (assay: P. falciparum M17LAP inhibitors, primary screen, biochemical, fluorogenic H-Leu-NHMec substrate, 1536-well (AID 1619)).
T1 sequence (Q8IL11 whole entry): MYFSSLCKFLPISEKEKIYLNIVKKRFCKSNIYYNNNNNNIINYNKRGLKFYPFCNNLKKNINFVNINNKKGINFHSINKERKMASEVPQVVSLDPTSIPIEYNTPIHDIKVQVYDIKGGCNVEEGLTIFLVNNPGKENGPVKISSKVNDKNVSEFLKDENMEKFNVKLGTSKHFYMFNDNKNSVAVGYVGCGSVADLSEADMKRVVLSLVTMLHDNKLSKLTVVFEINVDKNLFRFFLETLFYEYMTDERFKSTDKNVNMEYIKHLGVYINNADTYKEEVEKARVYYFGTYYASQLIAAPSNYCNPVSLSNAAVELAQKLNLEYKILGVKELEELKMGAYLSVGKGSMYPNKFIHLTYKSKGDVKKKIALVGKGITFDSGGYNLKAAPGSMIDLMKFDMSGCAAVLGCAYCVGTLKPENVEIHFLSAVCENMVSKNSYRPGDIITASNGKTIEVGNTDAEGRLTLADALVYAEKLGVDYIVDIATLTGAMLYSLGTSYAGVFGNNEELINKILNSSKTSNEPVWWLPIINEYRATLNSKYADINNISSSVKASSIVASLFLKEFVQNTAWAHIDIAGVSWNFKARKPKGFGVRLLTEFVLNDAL

Q: `O=C(CSc1n[nH]c(=O)[nH]c1=O)NN=Cc1ccccc1O` [2-[(3,5-dioxo-2,3,4,5-tetrahydro-1,2,4-triazin-6-yl)thio]-N'-(2-hydroxybenzylidene)acetohydrazide] was tested. Which IC50 did it give?
A: 129 µM

Q: `Cc1ccc(Nc2nnc(SCC(=O)C(C#N)c3nc4ccccc4[nH]3)s2)c(C)c1` (stereo not drawn) [2-(1,3-dihydrobenzimidazol-2-ylidene)-4-[[5-(2,4-dimethylanilino)-1,3,4-thiadiazol-2-yl]thio]-3-oxobutanenitrile] was tested. Which IC50 did it give?
A: 6.03 µM

Q: For `Cc1[nH][nH]c(=O)c1CCC(=O)NN=CC=Cc1ccccc1`, which IC50 is on record?
A: 51.4 µM

Q: With `COc1ccc(CN=Nc2nc(O)c(CC(=O)O)s2)cc1OCc1ccc(Cl)cc1` [2-[2-[2-[[3-[(4-chlorophenyl)methoxy]-4-methoxy-phenyl]methylidene]hydrazinyl]-4-oxidanylidene-1,3-thiazol-5-yl]ethanoic acid] as the molecule, how does the IC50 read?
A: 20.3 µM

Q: With `CC(=O)N1CCC2(CC1)c1c(CSc3ccc(C)cc3)n[nH]c1OC(=N)C2C#N` (stereo not drawn) [SMR000036525] as the molecule, how does the IC50 read?
A: 21.1 µM

Q: How did the IC50 turn out when `Cc1[nH][nH]c(=O)c1CCC(=O)NN=Cc1cccc(Cl)c1` [N'-[(1Z)-(3-chlorophenyl)methylene]-3-(3-methyl-5-oxo-4,5-dihydro-1H-pyrazol-4-yl)propanohydrazide] was run?
A: 20.9 µM

Q: Which IC50 does the source give for `C=C(c1ccc(OC)cc1)c1sc(=S)n(CCC(=O)O)c1O` here?
A: 30.1 µM and 27.4 µM

Q: `C=c1[nH]n(CCC#N)c(=O)c1=Cc1ccc(N(C)C)cc1` [3-[(4E)-4-[[4-(dimethylamino)phenyl]methylidene]-3-methyl-5-oxo-1-pyrazolyl]propanenitrile] was tested. Which IC50 did it give?
A: 120 µM

Q: For `COc1ccc(NC(=O)CSc2cc(O)n(-c3ccc4c(c3)OCCO4)c2O)cc1` [2-[1-(2,3-dihydro-1,4-benzodioxin-6-yl)-2,5-bis(oxidanylidene)pyrrolidin-3-yl]sulfanyl-N-(4-methoxyphenyl)ethanamide], which IC50 is on record?
A: 16.1 µM

Q: With `CCCOc1ccc(-n2c(O)cc(SCCN)c2O)cc1` [3-(2-aminoethylthio)-1-(4-propoxyphenyl)pyrrolidine-2,5-dione;hydrochloride] as the molecule, how does the IC50 read?
A: 12 µM

Q: Which IC50 does the source give for `O=C(O)c1ccc(CN=Nc2ccc(F)cc2F)cc1` [SMR000364892] here?
A: 99.4 µM

Q: How did the IC50 turn out when `CCOC(=O)C1C(=O)C(=Cc2ccc(OCC(=O)O)c(OCC)c2)SC1=Nc1ccc(C)cc1` (stereo not drawn) [(2-ethoxy-4-{[4-(ethoxycarbonyl)-5-[(4-methylphenyl)amino]-3-oxo-2(3H)-thienylidene]methyl}phenoxy)acetic acid] was run?
A: 15.6 µM

Q: With `Cc1ccc(CN=Nc2ccc(C(=O)O)cc2)s1` [SMR000364894] as the molecule, how does the IC50 read?
A: 20.4 µM

Q: Which IC50 does the source give for `Cc1cc(CN=Nc2ccc([N+](=O)[O-])cn2)c(C)n1-c1ccc(C(=O)O)cc1` [4-{2,5-dimethyl-3-[2-(5-nitro-2-pyridinyl)carbonohydrazonoyl]-1H-pyrrol-1-yl}benzoic acid] here?
A: 12.7 µM

Q: `N#CC1C(=N)Oc2[nH]nc(-c3ccccc3)c2C1c1ccsc1` (stereo not drawn) was tested. Which IC50 did it give?
A: 64.5 µM

Q: For `O=C(O)c1ccc(N=NCc2ccc(C(F)(F)F)cc2)cc1` [sulfuric acid;4-[(N'E)-N'-[4-(trifluoromethyl)benzylidene]hydrazino]benzoic acid], which IC50 is on record?
A: 46.3 µM

Q: Which IC50 does the source give for `CCCc1[nH]nc2c1C(CCc1ccccc1)C(C#N)C(=N)O2` (stereo not drawn) [6-azanyl-4-(2-phenylethyl)-3-propyl-2,4-dihydropyrano[2,3-c]pyrazole-5-carbonitrile] here?
A: 55.7 µM

Q: With `CN(C)c1ccc(/N=N/c2ccccc2C(=O)OCC(=O)N(C)C2CCCCC2)cc1` [[2-[cyclohexyl(methyl)amino]-2-oxidanylidene-ethyl] 2-[[4-(dimethylamino)phenyl]diazenyl]benzoate] as the molecule, how does the IC50 read?
A: 15.2 µM

Q: `Cc1nc2c([nH]1)C1(CCN(Cc3ccccc3)CC1)C(C#N)C(=N)O2` (stereo not drawn) [MLS000047918] was tested. Which IC50 did it give?
A: 63.2 µM

Q: How did the IC50 turn out when `CC(C=NNC(=O)Cc1c(C)[nH][nH]c1=O)=Cc1ccccc1` [2-(3-methyl-5-oxidanylidene-1,4-dihydropyrazol-4-yl)-N-[[(E)-2-methyl-3-phenyl-prop-2-enylidene]amino]ethanamide] was run?
A: 52.8 µM

Q: With `CCOc1cc(C2c3c(-c4ccccc4)n[nH]c3OC(=N)C2C#N)ccc1O` (stereo not drawn) [SMR000019337] as the molecule, how does the IC50 read?
A: 77.1 µM

Q: `Cc1cc(C=C2C(=O)NC(=O)N(c3ccc(F)cc3)C2=O)c(C)n1-c1ccc(C(=O)O)cc1` [SMR000273525] was tested. Which IC50 did it give?
A: 149 µM

Q: For `O=C1C=C/C(=C/NN2C(=O)C3C4C=CC(CC4)C3C2=O)C=C1O` (stereo not drawn) [SMR000207592], which IC50 is on record?
A: 34.3 µM

Q: How did the IC50 turn out when `O=C(O)c1cc(N=NCc2ccc(OCc3ccccc3)cc2)ccc1Cl` [SMR000364895] was run?
A: 20 µM

Q: With `CCOc1ccccc1-n1c(O)cc(Sc2nnc(-c3ccccc3)[nH]2)c1O` [1-(2-ethoxyphenyl)-3-[(5-phenyl-4H-1,2,4-triazol-3-yl)thio]-2,5-pyrrolidinedione] as the molecule, how does the IC50 read?
A: 8.97 µM

Q: `CC(=NNC(=O)CCc1c(C)[nH][nH]c1=O)c1ccc([N+](=O)[O-])cc1` was tested. Which IC50 did it give?
A: 80.6 µM

Q: For `Cc1ccc(/N=C2/S/C(=C\c3cn(CC(=O)O)c4ccccc34)C(=O)N2C)cc1` [2-[3-[(Z)-[3-methyl-2-(4-methylphenyl)imino-4-oxo-5-thiazolidinylidene]methyl]-1-indolyl]acetic acid], which IC50 is on record?
A: 11.4 µM

Q: Which IC50 does the source give for `Cc1ccc(C2C(C(=O)c3ccc(Br)cc3)C(=O)C(=O)N2Cc2ccco2)o1` (stereo not drawn) [(4Z)-4-[(4-bromophenyl)-hydroxy-methylene]-1-(2-furfuryl)-5-(5-methyl-2-furyl)pyrrolidine-2,3-quinone] here?
A: 66.4 µM

Q: With `C/C(=C\c1ccco1)C1c2c(-c3ccc(C)cc3)n[nH]c2OC(=N)C1C#N` (stereo not drawn) [MLS000519110] as the molecule, how does the IC50 read?
A: 132 µM

Q: `O=NCc1c[nH]c2ccccc12` [MLS000104363] was tested. Which IC50 did it give?
A: 13.2 µM

Q: How did the IC50 turn out when `C=CCN1C(=O)/C(=C/c2ccc(OCC(=O)O)cc2)SC1=Nc1nccs1` [2-[4-[(Z)-[4-oxidanylidene-3-prop-2-enyl-2-(1,3-thiazol-2-ylimino)-1,3-thiazolidin-5-ylidene]methyl]phenoxy]ethanoic acid] was run?
A: 18.9 µM

Q: For `COc1cccc(C=NNC(=O)Cc2c(C)[nH][nH]c2=O)c1O` [N'-[(E)-(5-methoxy-6-oxocyclohexa-2,4-dien-1-ylidene)methyl]-2-(3-methyl-5-oxo-1,4-dihydropyrazol-4-yl)acetohydrazide], which IC50 is on record?
A: 92.1 µM

Q: `COc1ccc(CN=Nc2ccc(C(=O)O)cc2)cc1Br` [4-[2-[(3-bromo-4-methoxyphenyl)methylidene]hydrazinyl]benzoic acid] was tested. Which IC50 did it give?
A: 23.4 µM

Q: With `CCOc1ccccc1C1c2c(-c3ccccc3)noc2N=C(N)C1C#N` (stereo not drawn) [6-amino-4-(2-ethoxyphenyl)-3-phenyl-2,4-dihydroisoxazolo[5,4-b]pyridine-5-carbonitrile] as the molecule, how does the IC50 read?
A: 52.7 µM

Q: Which IC50 does the source give for `C=CCOc1c(OC)cc(CN=Nc2cccc(C(=O)O)c2)c(Br)c1Br` here?
A: 1 µM

Q: Which IC50 does the source give for `O=C1CCCC2=Nc3[nH]c(=S)[nH]c(=O)c3C(c3ccc(Br)cc3)C12` (stereo not drawn) [5-(4-bromophenyl)-2-thioxo-2,3,5,8,9,10-hexahydropyrimido[4,5-b]quinoline-4,6(1H,7H)-dione] here?
A: 16.7 µM

Q: For `O=C(Nn1c(O)csc1=S)C(=O)Nn1c(O)csc1=S` [SMR000349781], which IC50 is on record?
A: 20.5 µM

Q: With `CC(CC1CC(C)(C)OC1=O)N=Nc1nc(-c2ccccc2)cs1` (stereo not drawn) [SMR000220752] as the molecule, how does the IC50 read?
A: 52.8 µM

Q: Which IC50 does the source give for `Cc1[nH][nH]c(=O)c1CCC(=O)NN=CC(Br)=Cc1ccccc1` [N'-(2-bromo-3-phenyl-2-propen-1-ylidene)-3-(3-methyl-5-oxo-4,5-dihydro-1H-pyrazol-4-yl)propanohydrazide] here?
A: 8 µM

Q: How did the IC50 turn out when `Cc1noc(NS(=O)(=O)c2ccc(N=CCC(=O)c3ccc4c(c3)OCO4)cc2)c1C` [4-[[(Z)-3-(1,3-benzodioxol-5-yl)-3-oxoprop-1-enyl]amino]-N-(3,4-dimethyl-5-isoxazolyl)benzenesulfonamide] was run?
A: 13.9 µM

Q: Which IC50 does the source give for `COc1ccc2sc(-n3c(O)c4c(c3O)CC(C)=CC4)nc2c1` here?
A: 35 µM

Q: How did the IC50 turn out when `O=C(Cc1cc(=O)[nH][nH]1)NN=Cc1cccc(Cl)c1Cl` was run?
A: 103 µM

Q: How did the IC50 turn out when `O=C1c2ccccc2C(=O)C1C1=NC(C(=O)O)c2c1c(O)n(-c1ccccc1)c2O` (stereo not drawn) [SMR000168620] was run?
A: 68 µM

Q: Which IC50 does the source give for `CC(C)(C)c1ccc(CN=Nc2ccc(C(=O)O)cc2)cc1` here?
A: 13.3 µM

Q: With `COc1cc(CN=Nc2ccc(Cl)c(C(=O)O)c2)ccc1OC(=O)c1cccs1` as the molecule, how does the IC50 read?
A: 55.5 µM

Q: `Cc1ccc(-c2n[nH]c3c2C(c2ccsc2)C(C#N)C(=N)O3)cc1` (stereo not drawn) [SMR000143666] was tested. Which IC50 did it give?
A: 11.3 µM

Q: For `O=NCc1ccc(OCc2ccccc2)c(C(=O)O)c1` [5-(hydroxyiminomethyl)-2-phenylmethoxybenzoic acid], which IC50 is on record?
A: 16.4 µM

Q: With `CN1C(=O)/C(=C/c2ccc(-c3ccccc3[N+](=O)[O-])o2)S/C1=N/c1ccc(Cl)c(C(=O)O)c1` [2-Chloro-5-[3-methyl-5-[1-[5-(2-nitro-phenyl)-furan-2-yl]-meth-(Z)-ylidene]-4-oxo-thiazolidin-(2Z)-ylideneamino]-benzoic acid] as the molecule, how does the IC50 read?
A: 6.24 µM

Q: How did the IC50 turn out when `CCc1nnc(NS(=O)(=O)c2ccc(N=CCC(=O)c3cccc4ccccc34)cc2)s1` [SMR000172027] was run?
A: 10.1 µM

Q: `Cc1cc(-c2n[nH]c3c2C(c2cccc(O)c2)C(C#N)C(=N)O3)c(C)s1` (stereo not drawn) [SMR000136653] was tested. Which IC50 did it give?
A: 52.8 µM

Q: `N#CC1C(=N)Oc2[nH]nc(-c3ccc(F)cc3)c2C1c1ccncc1` (stereo not drawn) [6-amino-3-(4-fluorophenyl)-4-pyridin-4-yl-2,4-dihydropyrano[2,3-c]pyrazole-5-carbonitrile] was tested. Which IC50 did it give?
A: 94.3 µM

Q: Which IC50 does the source give for `CC(=NNC(=O)Cc1c(C)[nH][nH]c1=O)c1cccs1` [SMR000305285] here?
A: 3.56 µM

Q: For `N#Cc1c(NC=C2C(=O)NC(=S)NC2=O)sc2c1CCCC2` [SMR000305847], which IC50 is on record?
A: 110 µM
